The values that follow come from US20260132151A1, “NOVEL N,N-DIMETHYLTRYPTAMINE (DMT) DERIVATIVES AND USES THEREOF” (priority 2022, published 2026).

Series [1] addresses T1, SERT (Homo sapiens, UniProt P31645). Description: Uptake inhibition assay ([3H]5-HT) in HEK293-SERT cells. The format is cell-based. Set-up: expressed in transfected cells. As to conditions: for IC50: HEK293-SERT cells. The method, then: (§1) Human embryonic kidney (HEK) 293 cells stably expressing human SERT were maintained in humidified atmosphere (37° C., 5% CO2) in Dulbecco's Modified Eagle Medium (DMEM), supplemented with 10% heat-inactivated fetal calf serum (FCS), streptomycin (100 μg×100 mL^−1) and penicillin (100 U×100 mL^−1). Geneticin (50 μg×mL^−1) was used as selection antibiotic.
One day before the experiment, HEK293-SERT cells were seeded onto poly-D-lysine coated 96 well plates at a density of 30,000 cells per well in a final volume of 200 μL. For uptake experiments, the cell culture medium was replaced with 300 μL Krebs-HEPES buffer (KHB; 25 mM HEPES, 120 mM NaCl, 5 mM KCl, 1.2 mM CaCl2, 1.2 mM MgSO4, and 5 mM D-glucose, pH 7.3). Then, the buffer was replaced with various concentrations of test compounds for 5 minutes; subsequent to that, 0.1 μM [^3H]5-HT in KHB was added to yield a total volume of 50 μL in the well. For determination of non-specific uptake, paroxetine was used (3 μM).
Uptake was terminated after 60 s by washing the cells with 200 μL ice-cold KHB. Subsequently, the cells were lysed with 200 μL Ultima Gold™ XR liquid scintillation cocktail, and the amount of tritium in the cells was measured with a Wallac 1450 MicroBeta® TriLux liquid scintillation counter. Monoamine uptake data were fitted by nonlinear regression, Vmax and Km values were calculated from Michaelis Menten's least-squares fit with GraphPad Prism (Prism 9.0.2, GraphPad Software, San Diego, CA, USA).
We tested Example 1, Example 4, Example 13 in both uptake inhibition and release assays, and Example 15 in uptake inhibition assays. Drugs were tested either as the undecomposed prodrug or after treatment with 0.5% HCl at 37° C. for 24 hours in order to simulate digestion of the prodrug by gastric acid inside the body after peroral administration. DMT was tested dissolved only in DMSO.

Series [2] has as its target T1, SERT. Set-up: host or cells: human platelets (endogenous SERT). The conditions noted are these: read-out: uptake inhibition by DMT; human platelets expressing SERT; literature value; cited from earlier work.
In series [3] the target is T1, SERT. Description: Release (efflux) assay in HEK293-SERT cells loaded with [3H]5-HT. The class given is cell-based. Set-up: expressed in transfected cells. As to conditions: Examples dissolved in HCl, DMT in DMSO, compared with pCA (full releaser). The method, then:
as §1
The day prior to the assay, stably expressing HEK293-SERT cells were seeded in a perfusion chamber of an IBIDI microfluidic chip (μ-Slide VI 0.5 Glass Bottom, ibidi GmbH). Chambers were previously coated with poly-D-lysine for 20 min at 37° C. and then cells were seeded at a density of approximately 1-10^6 cells×mL^−1.
For the release experiment, cells were loaded with radioactive substrate […] [^3H]5-HT for 20 min at 37° C. and then perfused with different solutions at constant flow rate (0.6 μL min^−1). […] The cells were flushed using sodium dodecyl sulfate (SDS) to retrieve the residual radioactivity (6 min). […]
Radioactivity was quantified with a beta-scintillation counter (PerkinElmer, Waltham, MA, USA). The released amount of tritiated substrate for each fraction was expressed as the amount of released tritium compared to the amount remaining in the cell at the end of the previous fraction. […]

The format of series [4] is physicochemical. The conditions noted are these: for stability of the prodrug (in words): 1% HCl, pH 7.4 and pH 8.0 compared; for release of DMT / conversion to DMT (in words): all tested pHs: 1% HCl, pH 7.4, pH 8.0; for degradation of the prodrug: essentially instantaneous, with liberation of DMT. Here is the method:
Four compounds (i.e., methyl carbamate [compound 8, Example 8], boc carbamate [compound 11, […]], pinacol boronic ester [compound 1, Example 1] and TFA-amide [compound 3, Example 3]) were tested for their stability in 1% hydrochloric acid (HCl) as well as in phosphate buffers (0.1 M) at pH 7.4 and pH 8.0, respectively. These conditions were selected to assess the chemical stability of these compounds at a pH corresponding to different physiological conditions. Dilute hydrochloric acid (pH 1) was used to mimic the low pH of gastric acid within the stomach, while potassium phosphate buffers of pH 7.4 and pH 8.0 were used to mimic conditions in human blood and small intestine, respectively.
4 mg of each test compound was diluted in 4 mL of either a 1% HCl solution or the respective phosphate buffer (0.1 M), resulting in a solution of 1 mg/mL each. Regarding the acidic testing with hydrochloric acid, 2 mL of aqueous test compound solutions were then added to 2 mL of 2% (v/v) in distilled water, yielding a final HCl concentration of […] (pH 0.5). Test solutions were incubated at 37° C. with constant stirring for approximately 21 hours. The concentrations of the parent compound were analyzed at different timepoints using LC/MS. The concentrations of the parent prodrug and released drug were expressed relative to the starting concentration of the parent prodrug.

[5] abbreviates: after treatment with 0.5% HCl at 37° C. for 24 hours, read-out: Uptake inhibition, IC50 values, SERT.
Where [6] appears, read: undecomposed compound dissolved in DMSO, no HCl pre-treatment, read-out: Uptake inhibition, IC50 values, SERT.

Entries after “also recorded” stand apart in the source; their conditions may differ. Where two headings read alike, the source gives them in different places.

T1 sequence (P31645 whole entry): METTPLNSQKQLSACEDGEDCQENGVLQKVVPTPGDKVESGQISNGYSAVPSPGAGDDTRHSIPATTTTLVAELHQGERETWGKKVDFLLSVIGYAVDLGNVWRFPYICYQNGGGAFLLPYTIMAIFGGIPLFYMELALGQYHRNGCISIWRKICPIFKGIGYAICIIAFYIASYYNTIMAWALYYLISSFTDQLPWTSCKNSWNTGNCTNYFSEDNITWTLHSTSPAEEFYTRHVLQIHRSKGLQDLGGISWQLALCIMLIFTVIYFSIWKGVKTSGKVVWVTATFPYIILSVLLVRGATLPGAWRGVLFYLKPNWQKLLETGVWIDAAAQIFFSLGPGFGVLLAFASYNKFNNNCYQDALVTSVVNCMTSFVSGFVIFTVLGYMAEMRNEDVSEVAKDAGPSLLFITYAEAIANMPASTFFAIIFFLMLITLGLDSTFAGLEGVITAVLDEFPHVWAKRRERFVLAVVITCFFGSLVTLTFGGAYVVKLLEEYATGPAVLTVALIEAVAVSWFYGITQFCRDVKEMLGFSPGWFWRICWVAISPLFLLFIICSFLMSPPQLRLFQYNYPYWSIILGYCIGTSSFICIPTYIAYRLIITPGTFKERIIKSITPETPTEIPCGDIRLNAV

With `CN(C)CCc1c[nH]c2ccccc12` [DMT, N,N-Dimethyltryptamine], the IC50 in series [1] (Uptake inhibition, IC50 values, SERT, undecomposed compound dissolved in DMSO, no HCl pre-treatment) is 12.3 µM; in series [2] it was roughly 10 µM. Further, the “transporter-mediated efflux (release) via SERT” value in series [3] was “almost full efficacious release”.

`CN(C)CCc1c[nH]c2cccc(B3OC(C)(C)C(C)(C)O3)c12` [Example 1, N,N-dimethyl-2-(4-(4,4,5,5-tetramethyl-1,3,2-dioxaborolan-2-yl)-1H-indol-3-yl)ethan-1-amine]: the IC50 in series [1] (setting [5]) was found to be 13.6 µM; in series [1] (setting [6]), 26.7 µM. Besides, in series [4], the “stability of the prodrug (in words)” value is “maximum stability under acidic conditions”. Further, the “release of DMT / conversion to DMT (in words)” value (“release of DMT / conversion” below) in series [4] (37° C.) is on record as “releasing DMT rapidly within minutes”.

Regarding `CN(C)CCc1cn(C(=O)C(F)(F)F)c2ccccc12` [Example 3, 1-(3-(2-(dimethylamino)ethyl)-1H-indol-1-yl)-2,2,2-trifluoroethan-1-one], the “stability of the prodrug (in words)” value in series [4] is reported as “maximum stability under acidic conditions”. Besides, the “release of DMT / conversion” value in series [4] (37° C.) is “releasing DMT rapidly within minutes”. Further, the “degradation of the prodrug” value in series [4] (phosphate buffer (0.1 M) pH 7.4, 37° C.) came to 100%; in series [4] (phosphate buffer (0.1 M) pH 8.0, 37° C.) it was 100%.

Take `CN(C)CCc1cn(C(=O)C(C)(C)C)c2ccccc12` [Example 4, 1-(3-(2-(dimethylamino)ethyl)-1H-indol-1-yl)-2,2-dimethylpropan-1-one]: the values for the IC50 in series [1] (setting [5]) and in series [1] (setting [6]) were 8.3 µM and roughly 2.1 µM, respectively. Besides, in series [3], the “transporter-mediated efflux (release) via SERT” value was “induces even less efflux; also recorded: yields a lower efflux compared to both DMT and Example 1”.

For the molecule `COC(=O)n1cc(CCN(C)C)c2ccccc21` [Example 8, methyl 3-(2-(dimethylamino)ethyl)-1H-indole-1-carboxylate], in series [4] (phosphate buffers (0.1 M) pH 7.4 and pH 8.0, 37° C.), the “release of DMT at pH 7.4 and pH 8.0” value was “continuous release of DMT”.

Consider `CN(C)CCc1cn(C(=O)OC(C)(C)C)c2ccccc12` [Example 11, tert-butyl 3-(2-(dimethylamino)ethyl)-1H-indole-1-carboxylate], for which, in series [4] (1% HCl solution (pH 1.0), 37° C., approximately 21 hours), the “liberation of DMT / conversion under acidic conditions” value was “remarkably fast release time of two hours”. Besides, the “stability of the prodrug (in words)” value in series [4] is “significantly more stable under all tested conditions”. Also, the “release of DMT / conversion” value in series [4] (37° C.) is reported as “Conversion to DMT proceeded efficiently throughout the entire experiment at all pHs”.

For the molecule `CN(C)CCc1cn(S(=O)(=O)C2CC2)c2ccccc12` [Example 13, 2-(1-(cyclopropylsulfonyl)-1H-indol-3-yl)-N,N-dimethylethan-1-amine], the IC50 was found to be 22.2 µM in series [1] (setting [5]) and 93.8 µM in series [1] (setting [6]). Besides, in series [1] (uptake inhibition, no HCl pre-treatment (DMSO)), the “interaction with the transporter without pre-treatment (in words)” value is “interaction with the transporter was scarce”.
